From the supplement of paper PMC11451515

System: SEM cells
Assay: cell viability relative to DMSO control; higher = less cytotoxic
Settings: 48 h
How it was run: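 Before seeding, each leukemia line was adapted for at least four passages in each medium. NOMO1 or SEM cells (500 cells/well) and P12-Ichikawa cells (1000 cells/well) went into 1536-well plates at 5 μl, then received library compounds in DMSO by pin dosing across 11 threefold concentrations, 47 μM to 0.79 nM. Readout was CellTiter-Glo One luminescence after 48 h at 37°C, and viability is given as a per-plate percentage of DMSO wells, with cell-free wells as background.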

[1] = HPLM + 10% dialyzed FBS, 0.000781 µM
[2] = HPLM + 10% dialyzed FBS, 0.00234 µM
[3] = HPLM + 10% dialyzed FBS, 0.00702 µM
[4] = HPLM + 10% dialyzed FBS, 0.0211 µM
[5] = HPLM + 10% dialyzed FBS, 0.0632 µM
[6] = HPLM + 10% dialyzed FBS, 0.19 µM
[7] = HPLM + 10% dialyzed FBS, 0.569 µM
[8] = HPLM + 10% dialyzed FBS, 1.71 µM
[9] = HPLM + 10% dialyzed FBS, 5.12 µM
[10] = HPLM + 10% dialyzed FBS, 15.4 µM
[11] = HPLM + 10% dialyzed FBS, 46.1 µM
[12] = RPMI 5 mM glucose + 10% FBS, 0.000781 µM
[13] = RPMI 5 mM glucose + 10% FBS, 0.00234 µM
[14] = RPMI 5 mM glucose + 10% FBS, 0.00702 µM
[15] = RPMI 5 mM glucose + 10% FBS, 0.0211 µM
[16] = RPMI 5 mM glucose + 10% FBS, 0.0632 µM
[17] = RPMI 5 mM glucose + 10% FBS, 0.19 µM
[18] = RPMI 5 mM glucose + 10% FBS, 0.569 µM
[19] = RPMI 5 mM glucose + 10% FBS, 1.71 µM
[20] = RPMI 5 mM glucose + 10% FBS, 5.12 µM
[21] = RPMI 5 mM glucose + 10% FBS, 15.4 µM
[22] = RPMI 5 mM glucose + 10% FBS, 46.1 µM
[23] = RPMI 5 mM glucose + 10% dialyzed FBS, 0.000781 µM
[24] = RPMI 5 mM glucose + 10% dialyzed FBS, 0.00234 µM
[25] = RPMI 5 mM glucose + 10% dialyzed FBS, 0.00702 µM
[26] = RPMI 5 mM glucose + 10% dialyzed FBS, 0.0211 µM
[27] = RPMI 5 mM glucose + 10% dialyzed FBS, 0.0632 µM
[28] = RPMI 5 mM glucose + 10% dialyzed FBS, 0.19 µM
[29] = RPMI 5 mM glucose + 10% dialyzed FBS, 0.569 µM
[30] = RPMI 5 mM glucose + 10% dialyzed FBS, 1.71 µM
[31] = RPMI 5 mM glucose + 10% dialyzed FBS, 5.12 µM
[32] = RPMI 5 mM glucose + 10% dialyzed FBS, 15.4 µM
[33] = RPMI 5 mM glucose + 10% dialyzed FBS, 46.1 µM

Row | Compound | cell viability [1] [%] | cell viability [2] [%] | cell viability [3] [%] | cell viability [4] [%] | cell viability [5] [%] | cell viability [6] [%] | cell viability [7] [%] | cell viability [8] [%] | cell viability [9] [%] | cell viability [10] [%] | cell viability [11] [%] | cell viability [12] [%] | cell viability [13] [%] | cell viability [14] [%] | cell viability [15] [%] | cell viability [16] [%] | cell viability [17] [%] | cell viability [18] [%] | cell viability [19] [%] | cell viability [20] [%] | cell viability [21] [%] | cell viability [22] [%] | cell viability [23] [%] | cell viability [24] [%] | cell viability [25] [%] | cell viability [26] [%] | cell viability [27] [%] | cell viability [28] [%] | cell viability [29] [%] | cell viability [30] [%] | cell viability [31] [%] | cell viability [32] [%] | cell viability [33] [%]
1 | CN(C)C(=O)c1ccc([S+](=O)([O-])c2ccc(NC(=O)[C@@](C)(O)C(F)(F)F)c(Cl)c2)cc1 | 98.1 | 105 | 104 | 112 | 110 | 104 | 129 | 120 | 118 | 116 | 80 | 95.3 | 122 | 110 | 109 | 124 | 108 | 112 | 123 | 120 | 24.3 | 4.66 | 99.3 | 98.8 | 108 | 102 | 107 | 88 | 103 | 111 | 111 | 72.8 | 20.9
2 | CCOC(=O)[C@H](CCc1ccccc1)N[C@@H](C)C(=O)N1CCC[C@H]1C(=O)O | 107 | 110 | 102 | 97.3 | 119 | 123 | 107 | 115 | 113 | 112 | 113 | 106 | 112 | 104 | 109 | 106 | 112 | 96.6 | 94.5 | 113 | 120 | 94.8 | 119 | 105 | 108 | 109 | 111 | 103 | 94.4 | 101 | 103 | 99.2 | 98.5
3 | CCc1c(C(=O)C(N)=O)c2c(OCC(=O)O)cccc2n1Cc1ccccc1 | 103 | 93.2 | 94.3 | 107 | 98.7 | 104 | 102 | 98.2 | 90.8 | 88.3 | 84.5 | 101 | 100 | 116 | 110 | 90.8 | 98.4 | 111 | 111 | 114 | 88.4 | 82.6 | 92.9 | 102 | 104 | 116 | 104 | 105 | 123 | 92.7 | 106 | 91.9 | 89.3
4 | Cc1cccc(-c2nn(C(=S)Nc3ccccc3)cc2-c2ccnc3ccccc23)n1 |  |  |  |  |  |  |  |  |  |  |  | 117 | 124 | 139 | 131 | 152 | 130 | 121 | 126 | 110 | 118 | 42.2 |  |  |  |  |  |  |  |  |  |  | 
5 | CC(=O)Nc1ccc([C@H](C)C(=O)Nc2ncc(C(C)C)s2)cc1 | 98.9 | 102 | 106 | 95.9 | 104 | 105 | 105 | 95.1 | 61.9 | 8.42 | 4.85 | 107 | 112 | 132 | 121 | 117 | 108 | 123 | 114 | 76 | 8.73 | 4.33 | 95.6 | 79.1 | 97.4 | 97.2 | 109 | 97.2 | 110 | 99.2 | 64.6 | 8.82 | 4.36
6 | Cc1cccc(C#Cc2ccccc2)n1 | 119 | 140 | 123 | 134 | 132 | 117 | 137 | 134 | 116 | 106 | 89.5 | 128 | 118 | 109 | 123 | 128 | 118 | 128 | 121 | 102 | 105 | 84.4 |  |  |  |  |  |  |  |  |  |  | 
7 | CCN(CC)C(=S)SSC(=S)N(CC)CC | 99.8 | 99.4 | 115 | 108 | 102 | 85.6 | 55.2 | 40.4 | 4.49 | 3.73 | 2.19 | 74.9 | 74.3 | 78.7 | 79.2 | 73.5 | 55.6 | 48.6 | 32.9 | 2.66 | 1.26 | 0.625 | 87.8 | 97.9 | 97.2 | 103 | 99.3 | 76.6 | 44.3 | 33.5 | 3.67 | 2.09 | 1.26
8 | CC1=CC=CC=C1CN2C(=O)C/3=C(/CCN(CC4=CC=CC=C4)C3)N\5CC\N=C25 | 113 | 121 | 125 | 115 | 117 | 120 | 115 | 110 | 94 | 25.3 | 19.6 | 129 | 119 | 114 | 101 | 114 | 109 | 97.1 | 95.9 | 50.9 | 13.2 | 9.39 | 127 | 121 | 119 | 119 | 141 | 119 | 136 | 133 | 58.4 | 19.6 | 19.8
